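Cells were grown in 96-well plates and exposed to each compound for 48 hours at five concentrations; endpoints were interpolated linearly between bracketing concentrations, or set to the highest concentration if not reached. GI50 marks 50% less growth.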 Active and inactive are the calls of the source. Cut-off read from the data, not from the text of the source: active = GI50 up to about 1.1 µM and inactive = higher.
How the values were obtained:
Assay in all cases: DTP human tumour cell line panel, 48 h
MCF7 = test system: MCF7
OVCAR-8 = test system: OVCAR-8
PC-3 = test system: PC-3
COLO 205 = test system: COLO 205
SF-539 = test system: SF-539
MDA-MB-435 = test system: MDA-MB-435
U-251 = test system: U-251
HOP-92 = test system: HOP-92
NCI-H226 = test system: NCI-H226
CAKI-1 = test system: CAKI-1
LOX IMVI = test system: LOX IMVI
OVCAR-4 = test system: OVCAR-4
SK-MEL-28 = test system: SK-MEL-28
HCT-15 = test system: HCT-15
786-0 = test system: 786-0
HT-29 = test system: HT-29
SF-268 = test system: SF-268
SK-OV-3 = test system: SK-OV-3
SW-620 = test system: SW-620
UO-31 = test system: UO-31

SMILES	GI50 (MCF7)	GI50 (OVCAR-8)	GI50 (PC-3)	GI50 (COLO 205)	GI50 (SF-539)	GI50 (MDA-MB-435)	GI50 (U-251)	GI50 (HOP-92)	GI50 (NCI-H226)	GI50 (CAKI-1)	GI50 (LOX IMVI)	GI50 (OVCAR-4)	GI50 (SK-MEL-28)	GI50 (HCT-15)	GI50 (786-0)	GI50 (HT-29)	GI50 (SF-268)	GI50 (SK-OV-3)	GI50 (SW-620)	GI50 (UO-31)
CC(C)c1ccccc1[S+]([O-])c1ccccc1C(C)(C)O (stereo unspecified)	> 100 µM (inactive)	> 100 µM (inactive)	> 100 µM (inactive)	> 100 µM (inactive)	> 100 µM (inactive)	39.6 µM (inactive)	18.9 µM (inactive)	> 100 µM (inactive)	21.3 µM (inactive)	> 100 µM (inactive)	69.5 µM (inactive)	> 100 µM (inactive)	> 100 µM (inactive)	82 µM	> 100 µM (inactive)	96.2 µM (inactive)	> 100 µM (inactive)	30.9 µM (inactive)	> 100 µM (inactive)	
Clc1ccc(Cc2nc3ccccc3nc2-c2cccc(Cl)c2)cc1	2.92 µM (inactive)	3.56 µM (inactive)	2.26 µM (inactive)	2.8 µM (inactive)	2.25 µM (inactive)	1.95 µM (inactive)	4.68 µM (inactive)	1.7 µM (inactive)	20.3 µM (inactive)	2.73 µM (inactive)	1.95 µM (inactive)	1.51 µM (inactive)		1.66 µM	1.84 µM (inactive)	2.61 µM (inactive)	18.3 µM (inactive)	17.2 µM (inactive)	1.61 µM (inactive)	1.78 µM (inactive)
c1ccc(NN(Cc2cnccn2)c2ccccc2)cc1	44.9 µM (inactive)	66.7 µM (inactive)	65.8 µM (inactive)	84.3 µM (inactive)	> 100 µM (inactive)	89.9 µM (inactive)	65 µM (inactive)	19.1 µM (inactive)	80.2 µM (inactive)	> 100 µM (inactive)	77.6 µM (inactive)	63 µM (inactive)	> 100 µM (inactive)	79.8 µM	> 100 µM (inactive)	97.3 µM (inactive)	> 100 µM (inactive)	> 100 µM (inactive)	> 100 µM (inactive)	
O=S(=O)(c1ccc(NC(=S)N/N=C/c2ccccc2O)cc1)N1CCCCC1	0.255 µM (active)		0.191 µM (active)	0.773 µM (active)	0.326 µM (active)	0.302 µM (active)		12.2 µM (inactive)	0.151 µM (active)		< 0.01 µM (active)		1.21 µM (inactive)	< 0.01 µM	0.188 µM (active)	7.73 µM (inactive)	0.0446 µM (active)	0.39 µM (active)	< 0.01 µM (active)	1.29 µM (inactive)
O=C1/C(=C/c2ccco2)N=C(c2ccccc2)N1c1ccc(S(=O)(=O)Nc2nccs2)cc1	61.4 µM (inactive)	65.5 µM (inactive)	86.3 µM (inactive)	> 100 µM (inactive)	> 100 µM (inactive)	> 100 µM (inactive)	71.9 µM (inactive)	73.8 µM (inactive)	> 100 µM (inactive)	> 100 µM (inactive)	> 100 µM (inactive)	69.2 µM (inactive)		28.9 µM	> 100 µM (inactive)	> 100 µM (inactive)	> 100 µM (inactive)	> 100 µM (inactive)	> 100 µM (inactive)	57.1 µM (inactive)
COc1ccc(/N=N/C(=N/NC(=O)c2ccc(C)cc2)c2ccc(N(CCC#N)CCC#N)cc2OC)cc1	> 100 µM (inactive)	> 100 µM (inactive)	> 100 µM (inactive)	> 100 µM (inactive)		> 100 µM (inactive)	> 100 µM (inactive)	> 100 µM (inactive)	> 100 µM (inactive)	> 100 µM (inactive)	> 100 µM (inactive)	> 100 µM (inactive)	> 100 µM (inactive)	> 100 µM	> 100 µM (inactive)	> 100 µM (inactive)	> 100 µM (inactive)	> 100 µM (inactive)	> 100 µM (inactive)	> 100 µM (inactive)

Source: ChEMBL document CHEMBL1201862, “PubChem BioAssay data set” (2004)
